# Measured values taken from patent US10106515B2, “1-(cyclopent-2-en-1-yl)-3-(2-hydroxy-3-(arylsulfonyl)phenyl)urea derivatives as CXCR2 inhibitors” (GLAXOSMITHKLINE INTELLECTUAL PROPERTY DEVELOPMENT LIMITED, priority 2014, dated 2018).
# Structures can show the parent of a compound that is named as a salt.
# Target: T1, recombinant human CXCR2 (Homo sapiens, UniProt P25025)
# T1 construct: TEV protease site; Gal4-VP16 transcription factor
# T1 sequence (P25025 1-360): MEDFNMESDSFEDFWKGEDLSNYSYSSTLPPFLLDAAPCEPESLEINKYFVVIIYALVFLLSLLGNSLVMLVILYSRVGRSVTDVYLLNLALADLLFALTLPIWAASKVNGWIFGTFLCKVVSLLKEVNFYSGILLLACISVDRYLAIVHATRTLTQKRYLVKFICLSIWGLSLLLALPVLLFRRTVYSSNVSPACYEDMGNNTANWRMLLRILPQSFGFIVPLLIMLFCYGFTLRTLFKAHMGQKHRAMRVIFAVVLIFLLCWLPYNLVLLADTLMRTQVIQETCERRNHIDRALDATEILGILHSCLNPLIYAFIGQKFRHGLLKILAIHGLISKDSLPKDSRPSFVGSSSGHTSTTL
# Test: CXCR2 Tango assay
# Format: cell-based
# Conditions: mean pIC50 of multiple test results; stimulated with 80 nM hCXCL1; reporter gene blue/green emission ratio; read-out: pIC50 (CXCR2 Tango assay) (converted)
# Summary of the method: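 Mean pIC50 comes from sigmoidal fits of the blue/green (460/530 nm) CCF4-AM ratio, normalized between hCXCL1-stimulated and DMSO controls. Compounds in 10-point dose response were incubated overnight at 37 °C with recombinant human CXCR2 Tango cells (~10,000/well) and 80 nM hCXCL1, with reporter read-out via arrestin-TEV release of Gal4-VP16.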
row,IC50 [nM],SMILES
1,≤ 10,"CC1=CCCC1NC(=O)Nc1ccc(Cl)c(S(=O)(=O)C2CC3(CCN(C)CC3)C2)c1O (centres unmarked) [Compound 140, 1-(4-chloro-2-hydroxy-3-((7-methyl-7-azaspiro[3.5]nonan-2-yl)sulfonyl)phenyl)-3-(2-methylcyclopent-2-en-1-yl)urea]"
2,≤ 10,"CO[C@@H]1COCC[C@@H]1S(=O)(=O)c1c(Cl)ccc(NC(=O)N[C@@H]2CCC=C2C)c1O [Compound 145, 1-(4-chloro-2-hydroxy-3-(((3R,4S)-3-methoxytetrahydro-2H-pyran-4-yl)sulfonyl)phenyl)-3-((R)-2-methylcyclopent-2-en-1-yl)urea]"
3,≤ 10,"CO[C@H]1C[C@@H](S(=O)(=O)c2c(Cl)ccc(NC(=O)NC3C=CCC3)c2O)C1 (stereo partly drawn) [Compound 147, 1-(4-chloro-2-hydroxy-3-((cis-3-methoxycyclobutyl)sulfonyl)phenyl)-3-(cyclopent-2-en-1-yl)urea]"
4,≤ 10,"CO[C@H]1C[C@@H](S(=O)(=O)c2c(Cl)ccc(NC(=O)NC3CCC=C3C)c2O)C1 (stereo partly drawn) [Compound 148, 1-(4-chloro-2-hydroxy-3-((cis-3-methoxycyclobutyl)sulfonyl)phenyl)-3-(2-methylcyclopent-2-en-1-yl)urea]"
5,≤ 10,"CO[C@H]1C[C@@H](S(=O)(=O)c2c(Cl)ccc(NC(=O)NC3CCC=C3Cl)c2O)C1 (stereo partly drawn) [Compound 149, 1-(4-chloro-2-hydroxy-3-((cis-3-methoxycyclobutyl)sulfonyl)phenyl)-3-(2-chlorocyclopent-2-en-1-yl)urea]"
6,≤ 10,"COC[C@H]1C[C@H](S(=O)(=O)c2c(Cl)ccc(NC(=O)NC3CCC=C3C)c2O)C1 (stereo partly drawn) [Compound 153, 1-(4-chloro-2-hydroxy-3-((trans-3-(methoxymethyl)cyclobutyl)sulfonyl)phenyl)-3-(2-methylcyclopent-2-en-1-yl)urea]"
7,≤ 10,"COC1CCN(S(=O)(=O)c2c(Cl)ccc(NC(=O)NC3CCC=C3C)c2O)CC1 (centres unmarked) [Compound 154, 1-(4-chloro-2-hydroxy-3-((4-methoxypiperidin-1-yl)sulfonyl)phenyl)-3-(2-methylcyclopent-2-en-1-yl)urea]"
8,≤ 10,"COCC(C)(C)S(=O)(=O)c1c(Cl)ccc(NC(=O)NC2CCC=C2C)c1O (centres unmarked) [Compound 156, 1-(4-chloro-2-hydroxy-3-((1-methoxy-2-methylpropan-2-yl)sulfonyl)phenyl)-3-(2-methylcyclopent-2-en-1-yl)urea]"
9,≤ 10,"COCC(C)(C)S(=O)(=O)c1c(Cl)ccc(NC(=O)NC2CCC=C2Cl)c1O (centres unmarked) [Compound 157, 1-(4-chloro-2-hydroxy-3-((1-methoxy-2-methylpropan-2-yl)sulfonyl)phenyl)-3-(2-chlorocyclopent-2-en-1-yl)urea]"
10,≤ 10,"COCCN1CCN(S(=O)(=O)c2c(Cl)ccc(NC(=O)NC3CCC=C3C)c2O)CC1 (centres unmarked) [Compound 161, 1-(4-chloro-2-hydroxy-3-((4-(2-methoxyethyl)piperazin-1-yl)sulfonyl)phenyl)-3-(2-methylcyclopent-2-en-1-yl)urea]"
11,≤ 1,"O=C(Nc1ccc(Cl)c(S(=O)(=O)[C@H]2C[C@@H](O)C2)c1O)N[C@@H]1CCC=C1Cl [Compound 162, 1-(4-chloro-2-hydroxy-3-((cis-3-hydroxycyclobutyl)sulfonyl)phenyl)-3-((R)-2-chlorocyclopent-2-en-1-yl)urea]"
12,≤ 10,"O=C(Nc1ccc(Cl)c(S(=O)(=O)[C@H]2C[C@@H](O)C2)c1O)NC1C=CCC1 (stereo partly drawn) [Compound 164, 1-(4-chloro-2-hydroxy-3-((cis-3-hydroxycyclobutyl)sulfonyl)phenyl)-3-(cyclopent-2-en-1-yl)urea]"
13,≤ 1,"O=C(Nc1ccc(Cl)c(S(=O)(=O)[C@H]2CCOC2)c1O)N[C@@H]1CCC=C1Cl [Compound 166, 1-(4-chloro-2-hydroxy-3-(((S)-tetrahydrofuran-3-yl)sulfonyl)phenyl)-3-((R)-2-chlorocyclopent-2-en-1-yl)urea]"
14,≤ 1,"O=C(Nc1ccc(Cl)c(S(=O)(=O)C2(F)CCOC2)c1O)N[C@@H]1CCC=C1Cl (stereo partly drawn) [Compound 167, 1-(4-chloro-3-((3-fluorotetrahydro-furan-3-yl)sulfonyl)-2-hydroxyphenyl)-3-((R)-2-chlorocyclopent-2-en-1-yl)urea]"
15,≤ 1,"O=C(Nc1ccc(Cl)c(S(=O)(=O)C2(F)CCOCC2)c1O)N[C@@H]1CCC=C1Cl [Compound 168, (R)-1-(4-chloro-3-((4-fluorotetrahydro-2H-pyran-4-yl)sulfonyl)-2-hydroxyphenyl)-3-(2-chlorocyclopent-2-en-1-yl)urea]"
16,≤ 1,"O=C(O)C(F)(F)F.[2H]C1(S(=O)(=O)c2c(Cl)ccc(NC(=O)N[C@@H]3CCC=C3Cl)c2O)CCN(C2CCC2)CC1 [Compound 169, (R)-1-(4-chloro-3-((1-cyclobutylpiperidin-4-yl)sulfonyl)-2-hydroxyphenyl)-3-(2-chlorocyclopent-2-en-1-yl)urea-d1, trifluoroacetic acid salt]"
17,≤ 10,"O=C(Nc1ccc(Cl)c(S(=O)(=O)[C@H]2C[C@H](N3CCCC3)C2)c1O)NC1C=CCC1 (stereo partly drawn) [Compound 174, 1-(4-chloro-2-hydroxy-3-((trans-3-(pyrrolidin-1-yl)cyclobutyl)sul-fonyl)phenyl)-3-(cyclopent-2-en-1-yl)urea]"
18,≤ 10,"O=C(Nc1ccc(Cl)c(S(=O)(=O)[C@H]2CCOC2)c1O)NC1C=CCC1 (stereo partly drawn) [Compound 175, 1-(4-chloro-2-hydroxy-3-(((S)-tetrahydrofuran-3-yl)sulfonyl)phenyl)-3-(cyclopent-2-en-1-yl)urea]"
19,≤ 10,"O=C(Nc1ccc(Cl)c(S(=O)(=O)C2CCOCC2)c1O)NC1C=CCC1 (centres unmarked) [Compound 176, 1-(4-chloro-2-hydroxy-3-((tetrahydro-2H-pyran-4-yl)sulfonyl)phenyl)-3-(cyclopent-2-en-1-yl)urea]"
20,≤ 10,"O=C(Nc1ccc(Cl)c(S(=O)(=O)[C@H]2C[C@H](N3CCCC3)C2)c1O)NC1CCC=C1Cl (stereo partly drawn) [Compound 177, 1-(4-chloro-2-hydroxy-3-((trans-3-(pyrrolidin-1-yl)cyclobutyl)sul-fonyl)phenyl)-3-(2-chlorocyclopent-2-en-1-yl)urea, trifluoroacetic acid salt]"
21,≤ 10,"O=C(Nc1ccc(Cl)c(S(=O)(=O)[C@H]2CC[C@H](N3CCC3)CC2)c1O)NC1CCC=C1Cl (stereo partly drawn) [Compound 178, 1-(3-((trans-4-(azetidin-1-yl)cyclohexyl)sul-fonyl)-4-chloro-2-hydroxyphenyl)-3-(2-chlorocyclopent-2-en-1-yl)urea, trifluoroacetic acid salt]"
22,≤ 10,"O=C(Nc1ccc(Cl)c(S(=O)(=O)[C@H]2CCOC2)c1O)NC1CCC=C1Cl (stereo partly drawn) [Compound 179, 1-(4-chloro-2-hydroxy-3-(((S)-tetrahydrofuran-3-yl)sulfonyl)phenyl)-3-(2-chlorocyclopent-2-en-1-yl)urea]"
23,≤ 10,"O=C(Nc1ccc(Cl)c(S(=O)(=O)C2CCOCC2)c1O)NC1CCC=C1Cl (centres unmarked) [Compound 180, 1-(4-chloro-2-hydroxy-3-((tetrahydro-2H-pyran-4-yl)sulfonyl)phenyl)-3-(2-chlorocyclopent-2-en-1-yl)urea]"
24,> 10000,"CC1(S(=O)(=O)c2c(Cl)ccc(NC(=O)N[C@@H]3CCC=C3Cl)c2O)COC1 [Compound 181, (R)-1-(4-chloro-2-hydroxy-3-((3-methyloxetan-3-yl)sulfonyl)phenyl)-3-(2-chlorocyclopent-2-en-1-yl)urea]"
25,≤ 10,"[2H]C([2H])([2H])C1(S(=O)(=O)c2c(Cl)ccc(NC(=O)N[C@@H]3CCC=C3Cl)c2O)CCOC1 (stereo partly drawn) [Compound 183, 1-(4-chloro-2-hydroxy-3-((3-(d3-methyl)tetrahydro-furan-3-yl)sulfonyl)phenyl)-3-((R)-2-chlorocyclopent-2-en-1-yl)urea]"
26,≤ 10,"CC1=CCC[C@H]1NC(=O)Nc1ccc(Cl)c(S(=O)(=O)[C@]2(C)CCOC2)c1O [Compound 196, 1-(4-chloro-2-hydroxy-3-(((R)-3-methyltetrahydrofuran-3-yl)sulfonyl)phenyl)-3-((R)-2-methylcyclopent-2-en-1-yl)urea]"
